The record followed here is patent publication US7807703B2, “Substituted aryl ketones” (Bayer CropScience AG, priority 2002, dated 2010).

A short description of this data set: log P determination by reversed-phase HPLC (EEC Directive 79/831 Annex V.A8; acidic or neutral mobile phase). As to conditions: for log P (acidic) / log P / logP (HPLC, mobile phase not marked) / chromatographic logP: HPLC, reversed-phase C 18, 43° C.; for log P (acidic): acetonitrile (marked a) or acidic); for log P / logP (HPLC, mobile phase not marked) / chromatographic logP: mobile phase range not marked; for chromatographic logP: reversed-phase C18 HPLC column, read-out: log P. The data set is classed as physicochemical. The procedure: The log P values given in the table were determined in accordance with EEC Directive 79/831 Annex V.A8 by HPLC (High Performance Liquid Chromatography) using a reversed-phase column (C 18). Temperature: 43° C.
(a) Mobile phases for the determination in the acidic range: 0.1% aqueous phosphoric acid, acetonitrile; linear gradient from 10% acetonitrile to 90% acetonitrile—the corresponding measurement results are marked a) in Table 1.
(b) Mobile phases for the determination in the neutral range: 0.01 molar aqueous phosphate buffer solution, acetonitrile; linear gradient from 10% acetonitrile to 90% acetonitrile—the corresponding measurement results are marked b) in Table 1.

Setting [1] is: HPLC, reversed-phase C18, 43° C.; acidic range a): 0.1% aqueous phosphoric acid, acetonitrile, linear gradient 10% to 90% acetonitrile.
[2] abbreviates: acidic range: 0.1% aqueous phosphoric acid.
Setting [3] is: HPLC reversed-phase C18, 43° C., acidic range: 0.1% aqueous phosphoric acid, acetonitrile gradient (marked a)).

SMILES strings stand for the structures.

As for `CCn1ncc(C(=O)c2ccc(S(C)(=O)=O)c(CN(Cc3ccoc3)OC)c2Cl)c1O` [Example 441], the logP result under setting [1] is “(I-2) logP = 2.39^a)”.
With `CCONCc1c(Cl)ccc(C(=O)C2C(=O)CCC(C)(C)C2=O)c1Cl` (centres unmarked) [Example 449], under setting [1], the logP result is recorded as “(I-2) logP = 3.64^a)”.
Take `CCN(Cc1c(Cl)ccc(C(=O)C2C(=O)CCC(C)(C)C2=O)c1Cl)OC` (centres unmarked) [Example 481]: the logP entry under setting [1] is reported as “(I-2) logP = 4.95^a)”.
Regarding `CCN(Cc1c(S(C)(=O)=O)ccc(C(=O)c2c(C)nn(CC)c2O)c1Cl)OC` [Example 406], the logP result under setting [1] was “(I-2) logP = 2.04^a)”.
As to `COC(=O)c1ccc(S(C)(=O)=O)c(CN(OC)C(C)C)c1Cl` [VIII-25], the “log P (acidic)” value under setting [2] was “logPacidic = 3.13”.
For `CCON(Cc1c(S(C)(=O)=O)ccc(C(=O)C2C(=O)CCCC2=O)c1Cl)C(C)C` [Example 418], the logP result under setting [1] is given as “logP = 3.66^a)”.
On to `CCN(Cc1c(Cl)ccc(C(=O)c2cnn(C)c2O)c1OC)OC` [Example 486], for which the logP entry under setting [1] was “logP = 2.44^a)”.
As for `COC(=O)c1ccc(S(C)(=O)=O)c(CN(C)OC(C)C)c1Cl` [VIII-45], the “log P (acidic)” value under setting [2] was “logPacicic = 2.97”.
Consider `CCN(Cc1c(Cl)ccc(C(=O)C2C(=O)CCC(C)(C)C2=O)c1OC)S(C)(=O)=O` (centres unmarked) [Example 465], for which, under setting [1], the logP result is on record as “(I-2) logP = 3.21^a)”.
Consider `CCOC(=O)c1ccc(Cl)c(OCCNS(=O)(=O)C(C)C)c1Cl` [VIII-20], for which the “log P” value is given as “logP = 2.86”.
As for `CCON(C)Cc1c(S(C)(=O)=O)ccc(C(=O)C2C(=O)CCC(C)(C)C2=O)c1Cl` (centres unmarked) [Example 425], the logP result under setting [1] was “(I-2) logP = 3.65^a)”.
Take `CCON(Cc1c(S(C)(=O)=O)ccc(C(=O)c2cnn(CC)c2O)c1Cl)CC1CCOC1` (centres unmarked) [Example 416]: the logP result under setting [1] is on record as “(I-2) logP = 2.11^a)”.
Consider `CCN(Cc1c(S(C)(=O)=O)ccc(C(=O)c2cnn(CC)c2O)c1Cl)OC(C)C` [Example 404], for which the logP entry under setting [1] is recorded as “logP = 2.79^a)”.
Consider `Cn1ncc(C(=O)c2ccc(Cl)c(OCCNS(C)(=O)=O)c2Cl)c1O` [Example 353], for which the logP result under setting [1] is “logP = 1.36^a)”.
Consider `CCON(C)Cc1c(S(C)(=O)=O)ccc(C(=O)OC)c1Cl` [VIII-43], for which the “log P (acidic)” value under setting [2] is on record as “logPacidic = 2.64”.
`CON(CC(=O)N(C)C)Cc1c(S(C)(=O)=O)ccc(C(=O)C2C(=O)CCCC2=O)c1Cl` [Example 396]: the logP result under setting [1] was “(I-2) logP = 1.93^a)”.
Consider `CCN(Cc1c(S(C)(=O)=O)ccc(C(=O)c2cnn(CC)c2O)c1Cl)OC` [Example 309], for which the “logP (HPLC, mobile phase not marked)” value turned out to be 2.16.
Consider `O=C1CCCC(=O)C1C(=O)c1ccc(Cl)c(OCCNS(=O)(=O)C(F)(F)F)c1Cl` [Example 9], for which the logP entry under setting [3] was “logP = 3.25^a)”.
On to `CCN(Cc1c(S(C)(=O)=O)ccc(C(=O)OC)c1Cl)OC` [VIII-23], for which, under setting [2], the “log P (acidic)” value is given as “logPacidic = 2.74”.
For the compound `CCn1ncc(C(=O)c2ccc(S(C)(=O)=O)c(CN(Cc3ccccc3)OC)c2Cl)c1O` [Example 334], the “logP (HPLC, mobile phase not marked)” value came out at 2.82.
Consider `COC(=O)c1ccc(S(C)(=O)=O)c(CN(CC2CC2)OC)c1Cl` [VIII-34], for which the “log P (acidic)” value under setting [2] is “logPacidic = 3.18”.
As for `CON(C)Cc1c(S(C)(=O)=O)ccc(C(=O)C2C(=O)CCCC2=O)c1Cl` [Example 145], the logP result under setting [3] was “logP = 2.49^a)”.
As for `COC(=O)c1ccc(S(C)(=O)=O)c(CN(OC)C(=O)C(C)C)c1Cl` [VIII-51], under setting [2], the “log P (acidic)” value is “logPacidic = 2.21”.
Consider `CON(Cc1c(S(C)(=O)=O)ccc(C(=O)C2C(=O)CCCC2=O)c1Cl)C(C)C` [Example 343], for which the “logP (HPLC, mobile phase not marked)” value was “(I-2) 3.26”.
`CCn1ncc(C(=O)c2ccc(Cl)c(OCCNS(C)(=O)=O)c2Cl)c1O` [Example 354]: the logP result under setting [1] is recorded as “logP = 1.54^a)”.
For `CCOC(=O)c1ccc(Cl)c(OCCNS(=O)(=O)CC)c1Cl` [VIII-15], the “log P” value is given as “logP = 2.61”.
Regarding `CC(C)ON(C)Cc1c(S(C)(=O)=O)ccc(C(=O)C2C(=O)CCCC2=O)c1Cl` [Example 393], under setting [1], the logP entry is “logP = 3.14^a)”.
With `CCONCc1c(S(C)(=O)=O)ccc(C(=O)OC)c1Cl` [VIII-11], the “log P” value is recorded as “logP = 2.05”.
For the compound `O=C1CCCC(=O)C1C(=O)c1ccc(Cl)c(OCCNS(=O)(=O)CCl)c1Cl` [Example 7], the logP entry under setting [3] is “logP = 2.57^a)”.
Consider `CON(Cc1c(S(C)(=O)=O)ccc(C(=O)c2cnn(C)c2O)c1Cl)C(C)C` [Example 371], for which, under setting [1], the logP result is reported as “logP = 2.16^a)”.
For the compound `CCOC(=O)c1ccc(Cl)c(OCCNS(C)(=O)=O)c1Cl` [VIII-2, ethyl 2,4-dichloro-3-(2-methylsulphonylaminoethoxy)benzoate], the chromatographic logP came to 2.35.
For `CCn1nc(C)c(C(=O)c2ccc(Cl)c(OCCNS(C)(=O)=O)c2Cl)c1O` [Example 355], under setting [1], the logP entry is “logP = 1.32^a)”.
Consider `CCON(Cc1c(S(C)(=O)=O)ccc(C(=O)C2C(=O)CCCC2=O)c1Cl)CC1CCOC1` (centres unmarked) [Example 415], for which the logP result under setting [1] was “(I-2) logP = 2.84^a)”.
For `COC(=O)c1ccc(Cl)c(CN(C)OC)c1Cl` [VIII-1, methyl 2,4-dichloro-3-(N-methoxy-N-methylaminomethyl)benzoate], the chromatographic logP worked out at 3.08.
Regarding `CCONCc1c(Cl)ccc(C(=O)OC)c1Cl` [VIII-7], the “log P” value was “logP = 2.77”.
On to `CCN(Cc1c(S(C)(=O)=O)ccc(C(=O)C2C(=O)CC(C)CC2=O)c1Cl)S(C)(=O)=O` (centres unmarked) [Example 475], for which the logP result under setting [1] is “(I-2) logP = 2.32^a)”.
`CCn1nc(C)c(C(=O)c2ccc(S(C)(=O)=O)c(CN(C)OC)c2Cl)c1O` [Example 12]: under setting [3], the logP entry is “logP = 1.45^a)”.
For `CCN(Cc1c(Cl)ccc(C(=O)C2C(=O)CCC(C)(C)C2=O)c1OC)OC` (centres unmarked) [Example 484], the logP entry under setting [1] is given as “(I-2) logP = 2.30^a)”.
Consider `CCS(=O)(=O)NCCOc1c(Br)ccc(C(=O)C2C(=O)CCCC2=O)c1Br` [Example 20], for which the logP entry under setting [3] is on record as “logP = 2.45^a)”.
Take `CCN(Cc1c(S(C)(=O)=O)ccc(C(=O)c2cnn(C)c2O)c1Cl)OC` [Example 369]: the logP entry under setting [1] was “logP = 1.84^a)”.
For the compound `CCN(Cc1c(S(C)(=O)=O)ccc(C(=O)C2C(=O)CCC(C)(C)C2=O)c1Cl)OC` (centres unmarked) [Example 405], the logP entry under setting [1] was “(I-2) logP = 3.70^a)”.
For the compound `CCN(Cc1c(S(C)(=O)=O)ccc(C(=O)C2C(=O)CCCC2=O)c1Cl)OC(C)C` [Example 402], the logP result under setting [1] is “logP = 3.52^a)”.
As for `COC(=O)c1ccc(S(C)(=O)=O)c(CN(OC)C2CCOCC2)c1Cl` [VIII-60], under setting [2], the “log P (acidic)” value is listed as “logPacidic = 2.38”.
Still for that read-out and setting: the same measure for `COC(=O)c1ccc(S(C)(=O)=O)c(CN(OC)C(C)=O)c1Cl` [VIII-39]: “logPacidic = 1.58”.
With `CS(=O)(=O)c1ccc(C(=O)C2C(=O)CCCC2=O)c(Cl)c1CN(CC1CCOC1)OC1CCCC1` (centres unmarked) [Example 426], the logP result under setting [1] is on record as “(I-2) logP = 3.53^a)”.
As for `COc1c(C(=O)C2C(=O)CC(C)CC2=O)ccc(Cl)c1CN(C)S(C)(=O)=O` (centres unmarked) [Example 476], the logP result under setting [1] is “(I-2) logP = 2.56^a)”.
Regarding `COC(=O)c1ccc(S(C)(=O)=O)c(CN(OC(C)C)C(C)C)c1Cl` [VIII-47], under setting [2], the “log P (acidic)” value is listed as “logPacidic = 3.86”.
Turning to `CONCc1c(Cl)ccc(C(=O)C2C(=O)CCCC2=O)c1Cl` [Example 129], under setting [3], the logP entry is reported as “logP = 2.33^a)”.
Turning to `CON(Cc1c(S(C)(=O)=O)ccc(C(=O)C2C(=O)CCCC2=O)c1Cl)C1CCOC1` (centres unmarked) [Example 409], the logP result under setting [1] was “(I-2) logP = 2.32^a)”.
With `CCn1ncc(C(=O)c2ccc(Cl)c(CN(C)S(C)(=O)=O)c2OC)c1O` [Example 470], the logP entry under setting [1] was “logP = 1.86^a)”.
Regarding `CCOC(=O)c1ccc(Cl)c(OCCNS(=O)(=O)c2cccs2)c1Cl` [VIII-18], the “log P” value was “logP = 3.20”.
Consider `CCS(=O)(=O)NCCOc1c(Br)ccc(C(=O)c2cnn(C)c2O)c1C` [Example 363], for which, under setting [1], the logP entry was “logP = 1.77^a)”.
Take `CON(Cc1ccccc1)Cc1c(S(C)(=O)=O)ccc(C(=O)c2cnn(C)c2O)c1Cl` [Example 335]: the “logP (HPLC, mobile phase not marked)” value stood at 2.48.
`CCn1ncc(C(=O)c2ccc(S(C)(=O)=O)c(CNOC3CCCC3)c2Cl)c1O` [Example 422]: under setting [1], the logP result is “(I-2) logP = 2.31^a)”.
As to `CN(Cc1c(S(C)(=O)=O)ccc(C(=O)C2C(=O)CCCC2=O)c1Cl)OCC1CCCCO1` (centres unmarked) [Example 438], the logP entry under setting [1] is “(I-2) logP = 3.04^a)”.
Turning to `CCN(Cc1c(S(C)(=O)=O)ccc(C(=O)c2cnn(CC)c2O)c1Cl)OC` [Example 149], the logP result under setting [3] is listed as “logP = 2.16^a)”.
In the case of `CCONCc1c(Cl)ccc(C(=O)C2C(=O)CCCC2=O)c1Cl` [Example 133], the logP entry under setting [3] is “logP = 2.75^a)”.
For the compound `CCN(Cc1c(Cl)ccc(C(=O)OC)c1OC)OC` [VIII-67], the “log P (acidic)” value under setting [2] is on record as “logPacidic = 3.43”.
As to `CCn1ncc(C(=O)c2ccc(S(C)(=O)=O)c(CN(OC)C3CCCOC3)c2Cl)c1O` (centres unmarked) [Example 412], the logP result under setting [1] is “(I-2) logP = 2.01^a)”.
Take `COC(=O)c1ccc(S(C)(=O)=O)c(CN(C)OC)c1Cl` [VIII-22]: the “log P (acidic)” value under setting [2] is “logPacidic = 2.31”.
For `CCN(Cc1c(Cl)ccc(C(=O)c2cnn(CC)c2O)c1OC)OC` [Example 485], under setting [1], the logP result was “logP = 2.97^a)”.
Take `CCS(=O)(=O)NCCOc1c(Br)ccc(C(=O)C2C(=O)CCCC2=O)c1C` [Example 364]: the logP result under setting [1] is reported as “logP = 2.41^a)”.
`CCS(=O)(=O)NCCOc1c(S(C)(=O)=O)ccc(C(=O)OC)c1Cl` [VIII-31]: the “log P (acidic)” value under setting [2] is on record as “logPacidic = 1.75”.
Consider `CCCS(=O)(=O)NCCOc1c(Cl)ccc(C(=O)c2cnn(CC)c2O)c1Cl` [Example 167], for which the logP result under setting [3] was “logP = 2.15^a)”.
In the case of `CON(CC(=O)N(C)C)Cc1c(S(C)(=O)=O)ccc(C(=O)C2C(=O)CCC(C)(C)C2=O)c1Cl` (centres unmarked) [Example 419], the logP result under setting [1] was “(I-2) logP = 2.58^a)”.
